Measured values taken from ChEMBL document CHEMBL1158050, “Minor sesquiterpenes with new carbon skeletons from the brown alga Dictyopteris divaricata” (J Nat Prod, 2006).

How the values were obtained:
Format in all cases: functional, cell-based
[1] = system: BGC-823; experiment: Cytotoxicity against human BGC-823 cells by MTT assay
[2] = system: A549; experiment: Cytotoxicity against human A549 cells by MTT assay
[3] = system: MCF7; experiment: Cytotoxicity against human MCF7 cells by MTT assay
[4] = system: HCT-8; experiment: Cytotoxicity against human HCT8 cells by MTT assay
[5] = system: Bel-7402; experiment: Cytotoxicity against human Bel-7402 cells by MTT assay

Measured: IC50

CC(=O)[C@@H]1C[C@]2(O)[C@@H]([C@H]1O)[C@H](C(C)C)CC[C@H]2C
> 10 µg/mL: [1] | [2] | [3] | [4] | [5]

CC(=O)C1=C2[C@H](C(C)C)CC[C@@H](C)[C@@]2(O)CC1=O
> 10 µg/mL: [1] | [2] | [3] | [4] | [5]

CC(=O)C1=C2[C@@H](C)CC[C@H](C(C)C)[C@@]2(O)CC1=O
> 10 µg/mL: [1] | [2] | [3] | [4] | [5]

CC(=O)[C@H]1C[C@]2(O)[C@@H]([C@@H]1O)[C@H](C(C)C)CC[C@H]2C
> 10 µg/mL: [1] | [2] | [3] | [4] | [5]

CC(=O)C1=C[C@@H]2[C@H](C(C)C)CC[C@@H](C)[C@]2(O)C1
> 10 µg/mL: [1] | [2] | [3] | [4] | [5]

CC(C)[C@@H]1CC[C@@H](C)[C@@]2(O)C1=CC(=O)[C@@H]2C(C)O (stereo not given in full)
> 10 µg/mL: [1] | [2] | [3] | [4] | [5]
